Measured values as given in patent US6843854B2, “Method and apparatus for separating a component from a mixture” (Purdue Research Foundation, priority 2002, dated 2005).
≈ marks a conversion by molar mass, not a printed value.

Key:
[1] = physchem
Method: The solubility data for each system tested in Table DD, was determined by the following method. First, a measured amount of dry crude mixture (39.3% clari, 37.5% 6,11, and 23.2% other impurities) was added to a measured volume of the mobile phase solvent being used for the particular test case and the mixture was stirred. Heat was added while the mixture was being stirred because dissolution of Clarithromycin and 6,11 is very slow at room temperature. The solution temperature was allowed to approach the boiling temperature of the solvent. The solution was held constant at that temperature until no more solid material was present in the mixture (complete dissolution). […]
In addition to the assembly of the physical system 500, the maximum feed concentration allowed by solubility must be known to optimize the operating parameters with the non-linear, non-equilibrium equations. The solubility was determined in the manner described earlier. Next, the optimal feed concentration was determined and was created by diluting the maximum feed concentration solution. […]
The feed solutions for Experiment #1 were prepared by mixing 5.6 g dry crude (39.3% clari, 37.5% 6,11, 23.2% other) Clarithromycin and 6,11 with 1000 ml of 80% methanol. […] Finally, this solution was filtered to remove any remaining solids and the volume measured to insure there was not significant evaporation. […]

[2] = Solubility in Ethanol/water solutions (excess solid stirred four hours, filtered, HPLC)

SMILES	solubility limit [1] [µg/mL]	solubility ([1]; 24 °C, organic solvent or mixture, thermodynamic from solid, solubility limit) [µg/mL]	solubility ([2]; Ethanol percentages below about 60%)	Ethanol content of the Ethanol/water solution at maximum solubility ([2]; approximately room temperature (24 C.), FIG. 8)	solubility ([2]; various Ethanol/water solutions, approximately room temperature (24 C.), FIG. 8)
CC[C@H]1OC(=O)[C@H](C)[C@@H](O[C@H]2C[C@@](C)(OC)[C@@H](O)[C@H](C)O2)[C@H](C)[C@@H](O[C@@H]2O[C@H](C)C[C@H](N(C)C)[C@H]2O)[C@](C)(OC)C[C@@H](C)C(=O)[C@H](C)[C@@H](OC)[C@]1(C)O [6,11, 6,11-O-methyl erythromycin A]	3030 (≈ 3.98 mM)				
CC[C@H]1OC(=O)[C@H](C)[C@@H](O[C@H]2C[C@@](C)(OC)[C@@H](O)[C@H](C)O2)[C@H](C)[C@@H](O[C@@H]2O[C@H](C)C[C@H](N(C)C)[C@H]2O)[C@](C)(OC)C[C@@H](C)C(=O)[C@H](C)[C@@H](O)[C@]1(C)O [Clarithromycin, 6-O-methyl erythromycin A]		2460 (≈ 3.29 mM)	very small	about 80 % Ethanol	higher degree of solubility than 6,11
